Assay results as given in article PMC12697872, “Rethinking the AI Paradigm for Solubility Prediction of Drug‑Like Compounds with Dual‐Perspective Modeling and Experimental Validation” (Advanced Science, 2025).
Like-named read-outs stand apart in the source and are kept apart here.

How the values were obtained:
[1] = CASR-2 dataset, aqueous solubility class 0-6; cited from earlier work
[2] = cited from earlier work
[3] = cited from earlier work; for LogS(mol/L): SC2-2 dataset (Second Solubility Challenge, loose subset), aqueous solubility; for Class: SC2-2 dataset, aqueous solubility class 0-6
[4] = 1H NMR on the saturated aqueous solution; format: physicochemical
Description: Each compound was tested in triplicate to ensure accuracy.

| SMILES | LogS(mol/L) [3] | Class [3] | also measured |
| --- | --- | --- | --- |
| [2H]c1c([2H])c([2H])c2c(c1[2H])C([2H])([2H])C([2H])([2H])C([2H])([2H])C2([2H])[2H] |  |  | Class [1]: 3 (Sparingly soluble (3)); LogS ([2]; CASR-1 curated training data, aqueous, 25 ± 2 °C): -0.8582 mol/L; LogS(mol/L) ([2]; sheet Uncurated data, compiled records): -0.8582 mol/L |
| Clc1ccc(COC(Cn2ccnc2)c2ccc(Cl)cc2Cl)c(Cl)c1 (stereo not shown) | -5.82 mol/L | 6 (Practically insoluble or insoluble (6)) |  |
| CCCc1nc2c(C)cc(-c3nc4ccccc4n3C)cc2n1Cc1ccc(-c2ccccc2C(=O)O)cc1 | -6.73 mol/L | 6 (Practically insoluble or insoluble (6)) |  |
| CCCC(=O)OC[C@@H](OC(=O)CCC)[C@@H](OC(=O)CCC)[C@H](Cn1c2nc(=O)[nH]c(=O)c-2nc2cc(C)c(C)cc21)OC(=O)CCC [riboflavin tetrabutyrate] |  |  | Solute in saturated aqueous solution by 1H NMR [4]: no existence of solute in the solution |
| COc1cc(NS(=O)(=O)c2ccc(N)cc2)nc(OC)n1 [COc1cc(NS(=O)(=O)c2ccc(N)cc2)nc(OC)n1] | -3.74 mol/L | 6 (Practically insoluble or insoluble (6)) |  |
